Laboratory results: patent publication US20260116920A1, “HUMAN TRANSFERRIN RECEPTOR BINDING PEPTIDE” (PEPTIDREAM INC., priority 2021, published 2026)
pKd: −log10 of the molar value. Positions of bridges follow the written chain, without caps; N, C: chain ends. Non-standard residues stand in square brackets, D forms with d. Residues, ends and D or L forms follow the SMILES beside them. *: point of attachment. Phe(3-COOH) = N[C@@H](Cc1cccc(C(=O)O)c1)C(=O)O; NH(CH2CH2O)8Me = COCCOCCOCCOCCOCCOCCOCCOCCN*; NMePhe(3-Cl) = CN[C@@H](Cc1cccc(Cl)c1)C(=O)O; 3Pal(6-NH2) = Nc1ccc(C[C@H](N)C(=O)O)cn1; NMeY = CN[C@@H](Cc1ccc(O)cc1)C(=O)O; 3Pal = N[C@@H](Cc1cccnc1)C(=O)O; 4Pal = N[C@@H](Cc1ccncc1)C(=O)O; PEG4 = NCCOCCOCCOCCOCCC(=O)O; Carboxymethyl = O=C(O)C*

Biological target: T1, human transferrin receptor (hTfR) (Homo sapiens, UniProt P02786)
T1 construct: made in house
Test: Evaluation of molecular interaction between transferrin receptor (hTfR) and peptide using surface plasmon resonance (SPR)
Type: binding
Conditions: surface plasmon resonance, binding to hTfR; KD class symbol; read-out: SPR (KD value)
In short: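 Single-cycle SPR kinetics, KD by least-squares sensorgram fitting, with peptide series of 100, 50, 25, 10 and 5 nM. Running buffer: 10 mM HEPES pH 8.0, 150 mM NaCl, 0.05% Tween 20, 0.1% BSA, 1.0% DMSO. Surface: hTfR dimer covalently coupled (EDC/NHS) onto Ni-NTA chip.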

T1 sequence (P02786 89-760 limits assumed): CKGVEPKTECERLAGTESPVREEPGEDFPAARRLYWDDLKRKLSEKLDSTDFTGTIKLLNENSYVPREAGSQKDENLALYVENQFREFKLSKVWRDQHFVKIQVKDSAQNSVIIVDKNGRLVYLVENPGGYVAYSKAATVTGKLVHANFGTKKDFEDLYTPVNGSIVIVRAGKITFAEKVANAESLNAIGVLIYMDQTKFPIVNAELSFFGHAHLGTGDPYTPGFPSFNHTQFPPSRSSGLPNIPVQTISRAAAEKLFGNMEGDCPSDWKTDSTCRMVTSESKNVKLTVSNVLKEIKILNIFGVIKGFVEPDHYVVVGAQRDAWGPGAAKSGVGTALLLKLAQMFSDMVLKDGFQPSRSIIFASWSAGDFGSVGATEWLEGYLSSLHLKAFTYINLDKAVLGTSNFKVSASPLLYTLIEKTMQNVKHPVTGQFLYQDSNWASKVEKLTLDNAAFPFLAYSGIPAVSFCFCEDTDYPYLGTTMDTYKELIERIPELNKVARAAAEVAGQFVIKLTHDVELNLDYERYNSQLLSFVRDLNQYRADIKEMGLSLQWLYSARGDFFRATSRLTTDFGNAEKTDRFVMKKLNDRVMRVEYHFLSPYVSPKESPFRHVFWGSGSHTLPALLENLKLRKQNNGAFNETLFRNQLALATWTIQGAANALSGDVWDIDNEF

pKd	SMILES
7.00 to 9.00	CC[C@H](C)[C@@H]1NC(=O)[C@H](Cc2cccnc2)NC(=O)[C@H](Cc2ccc(O)cc2)NC(=O)[C@H](CC(N)=O)NC(=O)[C@H](Cc2c[nH]c3ccccc23)NC(=O)[C@H](C(C)C)NC(=O)[C@H](Cc2cccc(Cl)c2)N(C)C(=O)[C@H](C(C)C)NC(=O)[C@H](C)NC(=O)CSC[C@@H](C(=O)NCCOCCOCCOCCOCCC(N)=O)NC(=O)[C@H](Cc2ccc(O)cc2)N(C)C(=O)[C@H](Cc2ccncc2)NC(=O)[C@H](CCC(=O)NCCOCCOCCOCCOCCOCCOCCOCCOC)NC(=O)[C@H](CCCNC(=N)N)NC(=O)[C@H]([C@@H](C)CC)NC1=O [compound 94] ({CH2CO}-AV[NMePhe(3-Cl)]VWNY[3Pal]IIRE(NH(CH2CH2O)8Me)[4Pal][NMeY]C[PEG4]-NH2; thioether N-15)
7.00 to 9.00	CC[C@H](C)[C@@H]1NC(=O)[C@H](Cc2ccc(OCC(=O)O)cc2)NC(=O)[C@H](Cc2ccc(O)cc2)NC(=O)[C@H](CC(N)=O)NC(=O)[C@H](Cc2c[nH]c3ccccc23)NC(=O)[C@H](C(C)C)NC(=O)[C@H](Cc2cccc(Cl)c2)N(C)C(=O)[C@H](C(C)C)NC(=O)[C@H](C)NC(=O)CSC[C@@H](C(=O)NCCOCCOCCOCCOCCC(N)=O)NC(=O)[C@H](Cc2ccc(O)cc2)N(C)C(=O)[C@H](Cc2cccc(C(=O)O)c2)NC(=O)[C@H](CCC(=O)NCCOCCOCCOCCOCCOCCOCCOCCOC)NC(=O)[C@H](CCCNC(=N)N)NC(=O)[C@H]([C@@H](C)CC)NC1=O [compound 95] ({CH2CO}-AV[NMePhe(3-Cl)]VWNYY(Carboxymethyl)IIRE(NH(CH2CH2O)8Me)[Phe(3-COOH)][NMeY]C[PEG4]-NH2; thioether N-15)
7.00 to 9.00	CC[C@H](C)[C@@H]1NC(=O)[C@H](Cc2ccc(OCC(=O)O)cc2)NC(=O)[C@H](Cc2ccc(O)cc2)NC(=O)[C@H](CC(N)=O)NC(=O)[C@H](Cc2c[nH]c3ccccc23)NC(=O)[C@H](C(C)C)NC(=O)[C@H](Cc2cccc(Cl)c2)N(C)C(=O)[C@H](C(C)C)NC(=O)[C@H](C)NC(=O)CSC[C@@H](C(=O)NCCOCCOCCOCCOCCC(N)=O)NC(=O)[C@H](Cc2ccc(O)cc2)N(C)C(=O)[C@H](Cc2ccncc2)NC(=O)[C@H](CCC(=O)NCCOCCOCCOCCOCCOCCOCCOCCOC)NC(=O)[C@H](CCCNC(=N)N)NC(=O)[C@H]([C@@H](C)CC)NC1=O [compound 96] ({CH2CO}-AV[NMePhe(3-Cl)]VWNYY(Carboxymethyl)IIRE(NH(CH2CH2O)8Me)[4Pal][NMeY]C[PEG4]-NH2; thioether N-15)
7.00 to 9.00	CC[C@H](C)[C@@H]1NC(=O)[C@H](Cc2cccnc2)NC(=O)[C@H](Cc2ccc(N)nc2)NC(=O)[C@H](CC(N)=O)NC(=O)[C@H](Cc2c[nH]c3ccccc23)NC(=O)[C@H](C(C)C)NC(=O)[C@H](Cc2cccc(Cl)c2)N(C)C(=O)[C@H](C(C)C)NC(=O)[C@H](C)NC(=O)CSC[C@@H](C(=O)NCCOCCOCCOCCOCCC(N)=O)NC(=O)[C@H](Cc2ccc(O)cc2)N(C)C(=O)[C@H](Cc2cccc(C(=O)O)c2)NC(=O)[C@H](CCC(=O)NCCOCCOCCOCCOCCOCCOCCOCCOC)NC(=O)[C@H](CCCNC(=N)N)NC(=O)[C@H]([C@@H](C)CC)NC1=O [compound 97] ({CH2CO}-AV[NMePhe(3-Cl)]VWN[3Pal(6-NH2)][3Pal]IIRE(NH(CH2CH2O)8Me)[Phe(3-COOH)][NMeY]C[PEG4]-NH2; thioether N-15)
7.00 to 9.00	CC[C@H](C)[C@@H]1NC(=O)[C@H](Cc2cccnc2)NC(=O)[C@H](Cc2ccc(N)nc2)NC(=O)[C@H](CC(N)=O)NC(=O)[C@H](Cc2c[nH]c3ccccc23)NC(=O)[C@H](C(C)C)NC(=O)[C@H](Cc2cccc(Cl)c2)N(C)C(=O)[C@H](C(C)C)NC(=O)[C@H](C)NC(=O)CSC[C@@H](C(=O)NCCOCCOCCOCCOCCC(N)=O)NC(=O)[C@H](Cc2ccc(O)cc2)N(C)C(=O)[C@H](Cc2ccncc2)NC(=O)[C@H](CCC(=O)NCCOCCOCCOCCOCCOCCOCCOCCOC)NC(=O)[C@H](CCCNC(=N)N)NC(=O)[C@H]([C@@H](C)CC)NC1=O [compound 98] ({CH2CO}-AV[NMePhe(3-Cl)]VWN[3Pal(6-NH2)][3Pal]IIRE(NH(CH2CH2O)8Me)[4Pal][NMeY]C[PEG4]-NH2; thioether N-15)
7.00 to 9.00	CC[C@H](C)[C@@H]1NC(=O)[C@H](Cc2ccc(OCC(=O)O)cc2)NC(=O)[C@H](Cc2ccc(N)nc2)NC(=O)[C@H](CC(N)=O)NC(=O)[C@H](Cc2c[nH]c3ccccc23)NC(=O)[C@H](C(C)C)NC(=O)[C@H](Cc2cccc(Cl)c2)N(C)C(=O)[C@H](C(C)C)NC(=O)[C@H](C)NC(=O)CSC[C@@H](C(=O)NCCOCCOCCOCCOCCC(N)=O)NC(=O)[C@H](Cc2ccc(O)cc2)N(C)C(=O)[C@H](Cc2cccc(C(=O)O)c2)NC(=O)[C@H](CCC(=O)NCCOCCOCCOCCOCCOCCOCCOCCOC)NC(=O)[C@H](CCCNC(=N)N)NC(=O)[C@H]([C@@H](C)CC)NC1=O [compound 99] ({CH2CO}-AV[NMePhe(3-Cl)]VWN[3Pal(6-NH2)]Y(Carboxymethyl)IIRE(NH(CH2CH2O)8Me)[Phe(3-COOH)][NMeY]C[PEG4]-NH2; thioether N-15)
7.00 to 9.00	CC[C@H](C)[C@@H]1NC(=O)[C@H](Cc2ccc(OCC(=O)O)cc2)NC(=O)[C@H](Cc2ccc(N)nc2)NC(=O)[C@H](CC(N)=O)NC(=O)[C@H](Cc2c[nH]c3ccccc23)NC(=O)[C@H](C(C)C)NC(=O)[C@H](Cc2cccc(Cl)c2)N(C)C(=O)[C@H](C(C)C)NC(=O)[C@H](C)NC(=O)CSC[C@@H](C(=O)NCCOCCOCCOCCOCCC(N)=O)NC(=O)[C@H](Cc2ccc(O)cc2)N(C)C(=O)[C@H](Cc2ccncc2)NC(=O)[C@H](CCC(=O)NCCOCCOCCOCCOCCOCCOCCOCCOC)NC(=O)[C@H](CCCNC(=N)N)NC(=O)[C@H]([C@@H](C)CC)NC1=O [compound 100] ({CH2CO}-AV[NMePhe(3-Cl)]VWN[3Pal(6-NH2)]Y(Carboxymethyl)IIRE(NH(CH2CH2O)8Me)[4Pal][NMeY]C[PEG4]-NH2; thioether N-15)
7.00 to 9.00	CC[C@H](C)[C@@H]1NC(=O)[C@H](Cc2ccc(OCC(=O)O)cc2)NC(=O)[C@H](Cc2ccc(O)cc2)NC(=O)[C@H](CC(N)=O)NC(=O)[C@H](Cc2cn(CC(=O)O)c3ccccc23)NC(=O)[C@H](C(C)C)NC(=O)[C@H](Cc2cccc(Cl)c2)N(C)C(=O)[C@H](C(C)C)NC(=O)[C@H](C)NC(=O)CSC[C@@H](C(=O)NCCOCCOCCOCCOCCC(N)=O)NC(=O)[C@H](Cc2ccc(O)cc2)N(C)C(=O)[C@H](Cc2ccccc2)NC(=O)[C@H](CCCNC(=N)N)NC(=O)[C@H](CCC(=O)NCCOCCOCCOCCOCCOCCOCCOCCOC)NC(=O)[C@H]([C@@H](C)CC)NC1=O [compound 101]
7.00 to 9.00	CC[C@H](C)[C@@H]1NC(=O)[C@H](Cc2ccc(OCC(=O)O)cc2)NC(=O)[C@H](Cc2ccc(O)cc2)NC(=O)[C@H](CC(N)=O)NC(=O)[C@H](Cc2cn(CC(=O)O)c3ccccc23)NC(=O)[C@H](C(C)C)NC(=O)[C@H](Cc2cccc(Cl)c2)N(C)C(=O)[C@H](C(C)C)NC(=O)[C@H](C)NC(=O)CSC[C@@H](C(=O)NCCOCCOCCOCCOCCC(N)=O)NC(=O)[C@H](Cc2ccc(O)cc2)N(C)C(=O)[C@H](Cc2ccccc2)NC(=O)[C@H](CCC(=O)NCCOCCOCCOCCOCCOCCOCCOCCOC)NC(=O)[C@H](CCCNC(=N)N)NC(=O)[C@H]([C@@H](C)CC)NC1=O [compound 102]
7.00 to 9.00	CC[C@H](C)[C@@H]1NC(=O)[C@H](Cc2ccc(OCC(=O)O)cc2)NC(=O)[C@H](Cc2ccc(O)cc2)NC(=O)[C@H](CC(N)=O)NC(=O)[C@H](Cc2cn(CC(=O)O)c3ccccc23)NC(=O)[C@H](C(C)C)NC(=O)[C@H](Cc2cccc(Cl)c2)N(C)C(=O)[C@H](C(C)C)NC(=O)[C@H](C)NC(=O)CSC[C@@H](C(=O)NCCOCCOCCOCCOCCC(N)=O)NC(=O)[C@H](Cc2ccc(O)cc2)N(C)C(=O)[C@H](Cc2cccc(C(=O)O)c2)NC(=O)[C@H](CCCNC(=N)N)NC(=O)[C@H](CCC(=O)NCCOCCOCCOCCOCCOCCOCCOCCOC)NC(=O)[C@H]([C@@H](C)CC)NC1=O [compound 103]
7.00 to 9.00	CC[C@H](C)[C@@H]1NC(=O)[C@H](Cc2ccc(OCC(=O)O)cc2)NC(=O)[C@H](Cc2ccc(O)cc2)NC(=O)[C@H](CC(N)=O)NC(=O)[C@H](Cc2cn(CC(=O)O)c3ccccc23)NC(=O)[C@H](C(C)C)NC(=O)[C@H](Cc2cccc(Cl)c2)N(C)C(=O)[C@H](C(C)C)NC(=O)[C@H](C)NC(=O)CSC[C@@H](C(=O)NCCOCCOCCOCCOCCC(N)=O)NC(=O)[C@H](Cc2ccc(O)cc2)N(C)C(=O)[C@H](Cc2ccccc2)NC(=O)[C@H](CCCNC(=N)N)NC(=O)[C@H](CCC(N)=O)NC(=O)[C@H]([C@@H](C)CC)NC1=O [compound 104]
7.00 to 9.00	CC[C@H](C)[C@@H]1NC(=O)[C@H](Cc2ccc(OCC(=O)O)cc2)NC(=O)[C@H](Cc2ccc(O)cc2)NC(=O)[C@H](CC(N)=O)NC(=O)[C@H](Cc2cn(CC(=O)O)c3ccccc23)NC(=O)[C@H](C(C)C)NC(=O)[C@H](Cc2cccc(Cl)c2)N(C)C(=O)[C@H](C(C)C)NC(=O)[C@H](C)NC(=O)CSC[C@@H](C(=O)NCCOCCOCCOCCOCCC(N)=O)NC(=O)[C@H](Cc2ccc(O)cc2)N(C)C(=O)[C@H](Cc2ccccc2)NC(=O)[C@H](CCC(N)=O)NC(=O)[C@H](CCCNC(=N)N)NC(=O)[C@H]([C@@H](C)CC)NC1=O [compound 105]
7.00 to 9.00	CC[C@H](C)[C@@H]1NC(=O)[C@H](Cc2ccc(O)cc2)NC(=O)[C@H](Cc2ccc(O)cc2)NC(=O)[C@H](CC(N)=O)NC(=O)[C@H](Cc2c[nH]c3ccccc23)NC(=O)[C@H](C(C)C)NC(=O)[C@H](Cc2ccccc2)N(C)C(=O)[C@H](C(C)C)NC(=O)[C@H](C)NC(=O)CSC[C@@H](C(=O)NCC(=O)N[C@H](CCC(=O)O)C(=O)N[C@H](CCC(=O)O)C(=O)N[C@H](CCC(=O)O)C(=O)N[C@H](CCC(=O)O)C(=O)N[C@H](CCC(=O)O)C(=O)N[C@@H](CSCC(=O)NC)C(N)=O)NC(=O)[C@H](Cc2ccc(O)cc2)N(C)C(=O)[C@H](Cc2ccc(O)cc2)NC(=O)[C@H](CCCNC(=N)N)NC(=O)[C@H](CCCNC(=N)N)NC(=O)[C@H]([C@@H](C)CC)NC1=O [compound 107]
